Source: patent publication US20210137913A1, “THERAPEUTIC AGENT FOR ASPIRATION PNEUMONIA, LUNG SUPPURATION, OR LUNG ABSCESS” (KYORIN PHARMACEUTICAL CO., LTD., priority 2017, published 2021)

How the values were obtained:
anaerobic bacteria = details: Non Patent Literature 2; cited from earlier work
[1] = test system: subjects suspected of having aspiration pneumonia; assay: Test Example 1: clinical efficacy in aspiration pneumonia; assay type: in vivo, human
Protocol: (§1) The investigational new drug A was administered intravenously for 7 to 14 days to 13 subjects suspected of having aspiration pneumonia meeting the following criteria.
A clear infiltrative shadow appearing acutely on chest X-rays or CT images taken within 48 hours before the start of administration at the age of 16 years or older, is observed.
Confirmation of clear aspiration, choking or dysphagia, has a disease or history of disease with potential dysphagia.
(§2) The patient presents with symptoms and inflammation that are characteristic of aspiration pneumonia. On the first day of the start of administration, two doses of investigational new drug A (300 mg/day) were used, and on the second day of administration, one dose of investigational new drug A (150 mg/day) was used, and then the same dose (150 mg/day) was maintained. The administration of the injection was performed intravenously over about 1 hour per dose.
(§3) The clinical efficacy of Test Examples 1 and 2 were determined by setting the following criteria, based on the criteria for clinical efficacy of pneumonia described in Clinical evaluation method of new antibacterial drugs in respiratory infections (2nd edition), Japanese Journal of Chemotherapy. 2012; 60(1): 30-45. 9). The primary endpoint was the efficacy rate at the end of administration or discontinuation of investigational new drug A.
(§4) The end of administration herein means the evaluation date on the day after the administration of the investigational new drug A is completed. Moreover, the time of discontinuation means the date on which the evaluation was performed within 3 days from the last administration date or the discontinuation judgment date of the investigational new drug A. Furthermore, “the end of administration or the time of discontinuation” is expressed as End of Treatment (EOT). In addition, CRP is an abbreviation for C-reactive protein, and is one of the acute phase reactants produced in a short time in response to various inflammations. It is a useful index for the observation of therapeutic effects since it increases in a few hours in bacterial infections such as pneumonia and decreases rapidly as the inflammation subsides.
(§5) “Early therapeutic effect” was defined as a case in which significant improvement is observed 3 days after administration (regardless of whether administration was completed or continued after 4 days).
(§6) Samples for microbiological evaluation were collected before starting an appropriate alternative antibacterial treatment.
(§7) In addition, if the discontinuation date is the start date of administration (day 0) or the second day of administration (day 1), the determination of early drug efficacy was regarded as unnecessary. In the case of the third day of administration (day 2) or later, it was determined using the test results at the time of discontinuation.
(§8) When the treatment was discontinued after the next day after the end of the administration, the clinical efficacy at the end of the administration was determined, and the determination of the clinical efficacy at the time of discontinuation was not required. In addition, it was judged as “Ineffective” when the treatment was discontinued or when it was changed to an alternative antibacterial treatment after the end of administration of the investigational new drug. […] When changing to an alternative antibacterial treatment, in principle, prescribed tests, examinations and judgments at the end of treatment were made before the change.
(§9) The efficacy rate is the value obtained by the following formula.
(§10) Efficacy rate=(number of subjects rated as “Effective”[…]number of subjects rated as “Effective” or “Ineffective”)×100(%)

[2] = test system: subjects suspected of having lung suppuration or lung abscess; assay: Test Example 2: clinical efficacy in lung suppuration or lung abscess; assay type: in vivo, human
Protocol: (§11) The investigational new drug A was administered intravenously for 7 to 14 days to 11 subjects suspected of having lung suppuration or lung abscess meeting the following criteria.
On chest X-rays or CT images taken within 48 hours before the start of administration at the age of 16 years or older, a massive shadow or a shadow with cavities inside (nodular shadow, mass shadow) is observed. Regardless of the presence of a niveau due to pus accumulation.
The patient presents with symptoms and inflammation that are characteristic of lung suppuration or lung abscess.
as §2, with “On” for “The patient presents with symptoms and inflammation that are characteristic of aspiration pneumonia. On”
as §3, §4, §5, §6, §7, §8, §9, §10

Anaerobe [3] = assay: Microbiological efficacy according to the causative bacteria (Aspiration pneumonia); assay type: in vivo
Protocol: as §1, §2, §6
(§12) Table 4 and Table 5 show the microbiological efficacy of Test Examples 1 and 2 according to the causative bacteria.

[4] = test system: genus Parvimonas P. micra; assay: as above; assay type: in vivo; details: case number 1
Protocol: as §1, §2, §6, §12

[5] = test system: genus Actinomyces A. odontolyticus; assay: as above; assay type: in vivo; details: case number 1
Protocol: as §1, §2, §6

[6] = test system: genus Bacteroides Bacteroides sp.; assay: as above; assay type: in vivo; details: case number 2
Protocol: as §1, §2, §6

[7] = test system: genus Prevotella P. buccae; assay: as above; assay type: in vivo; details: case number 1
Protocol: as §1, §2, §6

[8] = test system: genus Prevotella P. intermedia; assay: as above; assay type: in vivo; details: case number 1
Protocol: as §1, §2, §6

[9] = test system: genus Prevotella Prevotella sp.; assay: as above; assay type: in vivo; details: case number 6
Protocol: as §1, §2, §6

[10] = test system: genus Veillonella Veillonella sp.; assay: as above; assay type: in vivo; details: case number 7
Protocol: as §1, §2, §6

Anaerobe [11] = assay: Microbiological efficacy according to the causative bacteria (Lung suppuration/lung abscess); assay type: in vivo
Protocol: as §11
as §2, with “On” for “The patient presents with symptoms and inflammation that are characteristic of aspiration pneumonia. On”
as §6, §12

[12] = test system: genus Parvimonas P. micra; assay: as above; assay type: in vivo; details: case number 2
Protocol: as §11
as §2, with “On” for “The patient presents with symptoms and inflammation that are characteristic of aspiration pneumonia. On”
as §6, §12

[13] = test system: genus Bacteroide B. fragilis; assay: as above; assay type: in vivo; details: case number 1
Protocol: as §11
as §2, with “On” for “The patient presents with symptoms and inflammation that are characteristic of aspiration pneumonia. On”
as §6

[14] = test system: genus Fusobacterium F. necrophorum; assay: as above; assay type: in vivo; details: case number 1
Protocol: as §11
as §2, with “On” for “The patient presents with symptoms and inflammation that are characteristic of aspiration pneumonia. On”
as §6

[15] = test system: genus Fusobacterium F. nucleatum; assay: as above; assay type: in vivo; details: case number 4
Protocol: as §11
as §2, with “On” for “The patient presents with symptoms and inflammation that are characteristic of aspiration pneumonia. On”
as §6

[16] = test system: genus Leptotrichia Leptotrichia buccalis; assay: as above; assay type: in vivo; details: case number 1
Protocol: as §11
as §2, with “On” for “The patient presents with symptoms and inflammation that are characteristic of aspiration pneumonia. On”
as §6

[17] = test system: genus Porphyromonas P. gingivalis; assay: as above; assay type: in vivo; details: case number 1
Protocol: as §11
as §2, with “On” for “The patient presents with symptoms and inflammation that are characteristic of aspiration pneumonia. On”
as §6

[18] = test system: genus Prevotella P. intermedia; assay: as above; assay type: in vivo; details: case number 1
Protocol: as §11
as §2, with “On” for “The patient presents with symptoms and inflammation that are characteristic of aspiration pneumonia. On”
as §6

[19] = test system: genus Prevotella P. melaninogenica; assay: as above; assay type: in vivo; details: case number 1
Protocol: as §11
as §2, with “On” for “The patient presents with symptoms and inflammation that are characteristic of aspiration pneumonia. On”
as §6

[20] = test system: genus Prevotella P. oralis; assay: as above; assay type: in vivo; details: case number 1
Protocol: as §11
as §2, with “On” for “The patient presents with symptoms and inflammation that are characteristic of aspiration pneumonia. On”
as §6

[21] = test system: genus Prevotella Prevotella sp.; assay: as above; assay type: in vivo; details: case number 1
Protocol: as §11
as §2, with “On” for “The patient presents with symptoms and inflammation that are characteristic of aspiration pneumonia. On”
as §6

[22] = test system: genus Veillonella Veillonella sp.; assay: as above; assay type: in vivo; details: case number 2
Protocol: as §11
as §2, with “On” for “The patient presents with symptoms and inflammation that are characteristic of aspiration pneumonia. On”
as §6

[23] = Test Example 1, aspiration pneumonia, 3 days after administration, number of subjects
[24] = Test Example 1, aspiration pneumonia, EOT, number of subjects
[25] = conclusion from Table 2 and Table 3
[26] = Test Example 2, lung suppuration or lung abscess, 3 days after administration, number of subjects
[27] = Test Example 2, lung suppuration or lung abscess, EOT, number of subjects
[28] = aspiration pneumonia, Anaerobe total, case number 19
[29] = lung suppuration/lung abscess, Anaerobe total, case number 16

C[C@H]1COc2c(C3(N)CC3)c(F)cc3c(=O)c(C(=O)O)cn1c23 [pazufloxacin]
insufficient antibacterial activity: antibacterial activity against anaerobic bacteria (in words) (anaerobic bacteria)

O=C(O)c1cn(C2CC2)c2cc(N3CCNCC3)c(F)cc2c1=O [ciprofloxacin]
insufficient antibacterial activity: antibacterial activity against anaerobic bacteria (in words) (anaerobic bacteria)

COc1c(N2C[C@H](CNC3CC3)[C@H](F)C2)c(F)cc2c(=O)c(C(=O)O)cn(CCF)c12 [investigational new drug A, 7-[(3S,4S)-3-{(cyclopropylamino)methyl}-4-fluoropyrrolidin-1-yl]-6-fluoro-1-(2-fluoroethyl)-8-methoxy-4-oxo-1,4-dihydroquinoline-3-carboxylic acid]
2: Early drug efficacy evaluation, Clinical efficacy: Ineffective [2, 26] | Result: Persisted (Anaerobe [3]; [28]) | Result: Eradicated [6] | Result: Persisted [10] | Result: Eradicated [12] | Result: Eradicated [22]
4: Result: Eradicated [15]
100%: End of Treatment: Efficacy rate ([1]; Test Example 1, aspiration pneumonia, EOT) | End of Treatment: Efficacy rate ([1]; Test Example 1, aspiration pneumonia, EOT, listed as 7-[(3S,4S)-3-{(cyclopropylamino)methyl}-4-fluoropyrrolidin-1-yl]-6-fluoro-1-(2-f))
6: Result: Eradicated [9]
82%: Early drug efficacy evaluation: Efficacy rate ([2]; Test Example 2, lung suppuration or lung abscess, 3 days after administration)
15: Result: Eradicated (Anaerobe [11]; [29])
1: Early drug efficacy evaluation, Clinical efficacy: Ineffective [1, 23] | End of Treatment, Clinical efficacy: Undeterminable [1, 24] | End of Treatment, Clinical efficacy: Ineffective [2, 27] | Result: Eradicated [4] | Result: Eradicated [5] | Result: Eradicated [7] | Result: Eradicated [8] | Result: Persisted (Anaerobe [11]; [29]) | Result: Eradicated [13] | Result: Eradicated [14] | Result: Eradicated [16] | Result: Eradicated [17] | Result: Persisted [18] | Result: Eradicated [19] | Result: Eradicated [20] | Result: Eradicated [21]
91%: End of Treatment: Efficacy rate ([2]; Test Example 2, lung suppuration or lung abscess, EOT) | End of Treatment: Efficacy rate ([2]; Test Example 2, lung suppuration or lung abscess, EOT, listed as 7-[(3S,4S)-3-{(cyclopropylamino)methyl}-4-fluoropyrrolidin-1-yl]-6-fluoro-1-(2-f))
12: Early drug efficacy evaluation, Clinical efficacy: Effective ([1]; Test Example 1, aspiration pneumonia, 13 subjects, i.v. 300 mg day 1 then 150 mg/day, 3 days after administration, number of subjects) | End of Treatment, Clinical efficacy: Effective ([1]; Test Example 1, aspiration pneumonia, end of administration or discontinuation (EOT), number of subjects)
0: Early drug efficacy evaluation, Clinical efficacy: Undeterminable [1, 23] | End of Treatment, Clinical efficacy: Ineffective [1, 24] | Early drug efficacy evaluation, Clinical efficacy: Undeterminable [2, 26] | End of Treatment, Clinical efficacy: Undeterminable [2, 27] | Result: Persisted [4] | Result: Persisted [5] | Result: Persisted [6] | Result: Persisted [7] | Result: Persisted [8] | Result: Persisted [9] | Result: Persisted [12] | Result: Persisted [13] | Result: Persisted [14] | Result: Persisted [15] | Result: Persisted [16] | Result: Persisted [17] | Result: Eradicated [18] | Result: Persisted [19] | Result: Persisted [20] | Result: Persisted [21] | Result: Persisted [22]
high therapeutic effect: therapeutic effect on aspiration pneumonia (in words) [1, 25] | therapeutic effect on lung suppuration or lung abscess (in words) [2, 25]
10: End of Treatment, Clinical efficacy: Effective [2, 27]
9: Early drug efficacy evaluation, Clinical efficacy: Effective ([2]; Test Example 2, lung suppuration or lung abscess, 11 subjects, i.v. 300 mg day 1 then 150 mg/day, 3 days after administration, number of subjects)
17: Result: Eradicated (Anaerobe [3]; [28])
92%: Early drug efficacy evaluation: Efficacy rate ([1]; Test Example 1, aspiration pneumonia, 3 days after administration)
high antibacterial effect: antibacterial effect on the causative bacteria of aspiration pneumonia (in words) (Anaerobe [3]; conclusion from Table 4) | antibacterial effect on the causative bacteria of lung suppuration or lung abscess (in words) (Anaerobe [11]; conclusion from Table 5)
5: Result: Eradicated [10]
